According to PMC7848139, “Novel Hybrid CHC from β-carboline and N-Hydroxyacrylamide Overcomes Drug-Resistant Hepatocellular Carcinoma by Promoting Apoptosis, DNA Damage, and Cell Cycle Arrest” (Frontiers in Pharmacology, 2021):

Target: T1, recombinant human HDAC6 (Homo sapiens, UniProt Q9UBN7)
T1 construct: purchased Enzo Life Sciences Inc
T1 sequence (Q9UBN7 1-1215): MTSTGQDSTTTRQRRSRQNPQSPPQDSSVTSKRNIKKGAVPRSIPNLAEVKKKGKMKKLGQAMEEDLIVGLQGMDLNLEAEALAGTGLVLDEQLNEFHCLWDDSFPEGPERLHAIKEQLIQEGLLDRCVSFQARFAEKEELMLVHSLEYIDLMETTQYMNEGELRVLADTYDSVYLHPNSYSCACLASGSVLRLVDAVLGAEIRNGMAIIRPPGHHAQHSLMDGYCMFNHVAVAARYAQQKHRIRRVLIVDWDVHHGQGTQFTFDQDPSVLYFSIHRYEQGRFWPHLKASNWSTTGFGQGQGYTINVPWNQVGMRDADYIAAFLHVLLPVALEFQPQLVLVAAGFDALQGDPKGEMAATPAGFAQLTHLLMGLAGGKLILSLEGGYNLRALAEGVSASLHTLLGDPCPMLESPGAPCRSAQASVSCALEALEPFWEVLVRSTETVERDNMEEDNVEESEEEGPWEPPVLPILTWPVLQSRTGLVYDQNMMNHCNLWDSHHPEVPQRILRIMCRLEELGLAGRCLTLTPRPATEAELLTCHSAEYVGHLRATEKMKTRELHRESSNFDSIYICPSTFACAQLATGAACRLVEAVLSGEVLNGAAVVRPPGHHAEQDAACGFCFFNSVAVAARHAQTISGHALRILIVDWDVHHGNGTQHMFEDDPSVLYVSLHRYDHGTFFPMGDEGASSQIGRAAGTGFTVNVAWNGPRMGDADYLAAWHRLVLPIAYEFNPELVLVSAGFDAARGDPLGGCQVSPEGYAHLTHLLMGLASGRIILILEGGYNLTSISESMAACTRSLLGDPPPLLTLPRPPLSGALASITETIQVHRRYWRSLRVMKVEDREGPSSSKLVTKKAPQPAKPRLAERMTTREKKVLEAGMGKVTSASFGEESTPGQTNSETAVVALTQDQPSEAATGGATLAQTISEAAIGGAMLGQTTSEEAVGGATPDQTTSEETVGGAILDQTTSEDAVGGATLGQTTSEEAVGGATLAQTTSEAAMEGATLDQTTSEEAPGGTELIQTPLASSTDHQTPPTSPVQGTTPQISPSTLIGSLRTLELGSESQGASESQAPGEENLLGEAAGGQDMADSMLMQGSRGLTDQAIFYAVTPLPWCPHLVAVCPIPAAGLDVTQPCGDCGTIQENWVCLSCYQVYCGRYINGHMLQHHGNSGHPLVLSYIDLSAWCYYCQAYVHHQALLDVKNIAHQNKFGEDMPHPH
Assay: HDAC fluorimetric assay, HDAC6
Assay type: biochemical
Protocol: The assay was conducted according to the HDAC1/3/6/8 assay kit (Enzo Life Sciences Inc.). Each different concentrations of evaluated compounds were, respectively, incubated with each HDAC1/3/6/8 at coupling of corresponding HDAC substrate (Boc-Lys (Ac)-AMC) at 37°C for 60 min. Then stopping the reaction under adding lysine developer.

In the case of CN(C)c1ccc(-c2nc(C(=O)NCc3ccc(/C=C/C(=O)NO)cc3)cc3c2[nH]c2ccccc23)cc1 [CHC, (E)-N-(4-(3-(hydroxyamino)-3-oxoprop-1-en-1-yl)benzyl)-1-(4-dimethylaminophenyl)-9H-pyrido [3,4-b]indole-3-carboxamide], the “IC50 on HDAC6 relative to SAHA” value (compared with SAHA) is reported as “eight-fold lower”, the IC50 (mean ± SD of three experiments) is reported as 7.6 ± 1 nM and the “fold lower IC50 on HDAC6 than on HDAC3” value (selectivity HDAC6 over HDAC3) is reported as 18 fold.
